Measured values as given in patent publication EP3050567B1, “COMPOUND FOR ACTIVATING AMPK AND USES THEREOF” (Energenesis Biomedical Co., Ltd., priority 2013, dated 2015).

What was measured:
AMPK [1] = test: AMPK activation assay (phospho-AMPK Thr172 western blot) in C2C12 cells; assay type: cell-based, Mouse; conditions: 30 min
Method: (§1) Effects of adenine on AMPK activation were evaluated based on the phosphorylation of AMPK protein upon adenine treatment. Mouse muscle cell C2C12, mouse fibroblast 3T3, human liver carcinoma cell Hep G2, human breast adenocarcinoma cell line MCF7 and human colon adenocarcinoma grade II cell line HT29, human umbilical vein endothelial cell HUVEC, Human acute monocytic leukemiacell THP1, human macrophage cell U937, murine microglia cell BV-2, and mouse neuroblastoma cell Neuro2A and dermal papilla cell were cultured in high-glucose Dulbecco's modified Eagle's medium (DMEM) containing 10% fetal bovine serum (FBS), 4 mM L-glutamine, 2 mM sodium pyruvate and 1% penicillin/streptomycin (Invitrogen GibcoBRL, Carlsbad, Calif., USA) at 37°C, under 5% CO2. Cells were plated at 3 × 10^5 per well in 6-well plates. Twenty-four hours after plating, adenine was added to the culture media as indicated. After 30 min cells were lysed and subject to western blot analysis. Equal amount of protein from each sample was separated by SDS-PAGE and then electroblotted on to PVDF membranes. Membranes were blocked with 3% BSA in PBS for 60 min and incubated with an anti-phospho-AMPK (Thr172) antibody (1:2,000, Cell signaling) or an anti-AMPK antibody (1:2,000, Cell signaling) at 4°C for 16 h followed by the corresponding secondary antibody for 1 h at room temperature (RT). Immunoreactive bands were detected by enhanced chemiluminescence and recorded using Kodak film. The detected signals were scanned and then quantified using TotalLab Quant software (TotalLab).

AMPK [2] = test: AMPK activation assay (phospho-AMPK Thr172 western blot) in Hep G2 cells; assay type: cell-based, human; conditions: 30 min
Method: as §1

AMPK [3] = test: AMPK activation assay (phospho-AMPK Thr172 western blot) in MCF7 cells; assay type: cell-based, human; conditions: 30 min
Method: as §1

AMPK [4] = test: AMPK activation assay (phospho-AMPK Thr172 western blot) in BV-2 cells; assay type: cell-based, murine; conditions: 30 min
Method: as §1

AMPK [5] = test: AMPK activation assay (phospho-AMPK Thr172 western blot) in dermal papilla cells; assay type: cell-based; conditions: 30 min
Method: as §1

TNFα = test: LPS-induced inflammatory response in THP1 macrophages, secreted TNFα (ELISA); assay type: cell-based, human; conditions: 50 ng LPS 6 hr
Method: (§2) Effects of adenine on inflammatory response were evaluated in human THP1 macrophage by examining protein level of intracellular COX-2 and secreted TNFα, IL-1β and IL-6. Differentiation of THP1 monocytes into macrophages was induced by 50 nM PMA for 24 hr. THP1 macrophages were further stimulated by 50 ng LPS for 6 hr in the presence of 10-600 µM of adenine or vehicle followed by cell lysis and western blot analysis. Equal amounts of protein were separated by SDS-PAGE and then electroblotted on to PVDF membranes. Membranes were blocked with 3% BSA in PBS for 60 min and incubated with an anti-COX-2 antibody (1:1,000, Cell signaling), an anti-actin antibody (1:5,000, Cell signaling) at 4° C for 16 h followed by the corresponding secondary antibody for 1 h at room temperature (RT). Immunoreactive bands were detected by enhanced chemiluminescence and recorded using Kodak film. The detected signals were scanned and then quantified using TotalLab Quant software (TotalLab). The secreted TNFα, IL-1β and IL-6 were analyzed by enzyme-linked immunosorbent assays.

IL-6 = test: LPS-induced inflammatory response in THP1 macrophages, secreted IL-6 (ELISA); assay type: cell-based, human; conditions: 50 ng LPS 6 hr
Method: as §2

COX-2 = test: LPS-induced inflammatory response in THP1 macrophages, intracellular COX-2 (western blot); assay type: cell-based, human; conditions: 50 ng LPS 6 hr
Method: as §2

HT29 = test: Cancer cell growth inhibition assay, HT29; assay type: cell-based; conditions: Homo sapiens, HT-29; HT29 cell proliferation, 72 h, cell counting
Method: Human liver hepatocellular carcinoma cell line Hep G2, human breast adenocarcinoma cell line MCF7 and human colon adenocarcinoma grade II cell line HT29 were used to evaluate the effects of adenine on cell proliferation. Those cell lines were obtained from ATCC and were cultured in high-glucose Dulbecco's modified Eagle's medium (DMEM) containing 10% fetal bovine serum (FBS), 4 mM L-glutamine, 2 mM sodium pyruvate and 1% penicillin/streptomycin (Invitrogen GibcoBRL, Carlsbad, Calif., USA) at 37°C under 5% CO2. Cells were plated at 1 × 10^5 per well (6-well plate). Twenty-four hours after plating, cells were treated with indicated concentration of adenine for 72 h and then followed by cell counting. Cells were detached using trypsin-EDTA solution and stained with trypan blue. The living cells were counted using hemocytometer.

In the case of `Nc1ncnc2nc[nH]c12` [Adenine, adenine], the “AMPK activation (fold to control)” value (AMPK [1]; adenine 1 microM) is reported as 1.2 fold to control, the “AMPK activation (fold to control)” value (AMPK [1]; adenine 10 microM) is reported as 1.7 fold to control and the “AMPK activation (fold to control)” value (AMPK [1]; adenine 100 microM) is reported as 3.2 fold to control. For the same compound, the “AMPK activation (fold to control)” value (AMPK [1]; adenine 200 microM) was 3.9 fold to control, the “AMPK activation (fold to control)” value (AMPK [1]; adenine 600 microM) was 4.1 fold to control and the “AMPK activation (fold to control)” value (AMPK [2]; adenine 1 microM) was 1.1 fold to control. The “AMPK activation (fold to control)” value (AMPK [2]; adenine 10 microM) was 2.1 fold to control, the “AMPK activation (fold to control)” value (AMPK [2]; adenine 100 microM) was 3.3 fold to control and the “AMPK activation (fold to control)” value (AMPK [2]; adenine 200 microM) was 3.8 fold to control. For the same compound, the “AMPK activation (fold to control)” value (AMPK [2]; adenine 600 microM) was 4.2 fold to control, the “AMPK activation (fold to control)” value (AMPK [3]; adenine 1 microM) was 1.2 fold to control and the “AMPK activation (fold to control)” value (AMPK [3]; adenine 10 microM) was 1.6 fold to control. The “AMPK activation (fold to control)” value (AMPK [3]; adenine 100 microM) was 2.5 fold to control, the “AMPK activation (fold to control)” value (AMPK [3]; adenine 200 microM) was 3.4 fold to control and the “AMPK activation (fold to control)” value (AMPK [3]; adenine 600 microM) was 3.7 fold to control. The “AMPK activation (fold to control)” value (AMPK [4]; adenine 1 microM) was 1.2 fold to control, the “AMPK activation (fold to control)” value (AMPK [4]; adenine 10 microM) was 1.7 fold to control and the “AMPK activation (fold to control)” value (AMPK [4]; adenine 40 microM) was 2.6 fold to control. For the same compound, the “AMPK activation (fold to control)” value (AMPK [4]; adenine 160 microM) was 3.2 fold to control, the “AMPK activation (fold to control)” value (AMPK [5]; adenine 1 microM) was 1.1 fold to control and the “AMPK activation (fold to control)” value (AMPK [5]; adenine 10 microM) was 1.4 fold to control. For the same compound, the “AMPK activation (fold to control)” value (AMPK [5]; adenine 100 microM) was 2.1 fold to control, the “AMPK activation (fold to control)” value (AMPK [5]; adenine 200 microM) was 2.5 fold to control and the “AMPK activation (fold to control)” value (AMPK [5]; adenine 600 microM) was 2.8 fold to control. For the same compound, the “TNFα (% to control)” value (TNFα; adenine 10 microM) was 85±9.1 % to control, the “TNFα (% to control)” value (TNFα; adenine 100 microM) was 41±2.6 % to control and the “TNFα (% to control)” value (TNFα; adenine 600 microM) was 23±1.8 % to control. For the same compound, the “IL-6 (% to control)” value (IL-6; adenine 10 microM) was 88±6.3 % to control, the “IL-6 (% to control)” value (IL-6; adenine 100 microM) was 21±7.8 % to control and the “IL-6 (% to control)” value (IL-6; adenine 600 microM) was 14±6.2 % to control. The “COX-2 (% to control)” value (COX-2; adenine 10 microM) was 81±4.4 % to control, the “COX-2 (% to control)” value (COX-2; adenine 100 microM) was 59±3.5 % to control and the “COX-2 (% to control)” value (COX-2; adenine 600 microM) was 38±5.3 % to control. It also gave an IC50 (HT29) of 532 µM.
